Data on one molecule can be found in patent publication US20210276967A1 (OSPEDALE SAN RAFFAELE S.R.L., priority 2018, published 2021).

The test system of data set [1] is HBV (HBeAg, surrogate of cccDNA biogenesis). Briefly: In vitro HBV infection of HepG2-NTCP cells, extracellular HBeAg ELISA (establishment of HBV cccDNA). The settings on record: Hepatitis B virus, 144 h, 6 days, read-out: HBeAg* inhibition EC50 (Mean ± StD, μM) *surrogate of cccDNA biogenesis. The class given is cell-based. The source says:
HepG2-NTCP hepatoma cell line was used to conduct the infection experiments. HepG2-NTCP was obtained by ectopic expression in HepG2 cells of the human Sodium Taurocholate Cotransporting Polypeptide receptor (hNTCP) using a lentiviral vector expressing human NTCP (Seeger et al., Molecular Therapy-Nucleic Acids, 2014). hNTCP was recently identified as HBV receptor (Yan H. et al., Elife. Nov. 13, 2012; 3). The complete viral life cycle of HBV could be obtained in the HepG2-NTCP cell line. HepG2-NTCP cells were maintained in DMEM, supplemented with 10% of FBS, 1% glutamine and 1% penicillin/streptomycin.
The ability of compounds to inhibit the establishment of HBV cccDNA in infected cells was investigated in an in vitro model of HBV infection. For this purpose HepG2-NTCP cell line, engineered to stably express the HBV receptor human sodium taurocholate cotrasporting polypeptide (hNTCP), was used and HBV particles were produced in HepAD38 following standard published procedure (Hepatitis B methods and protocols, Guo H., Cuconati, A.; 2017; Humana press). In detail HepG2-NTCP were seeded at 20.000 cells/well in collagen coated 96 multiwell plates. […] The ability of compounds to inhibit the establishment of HBV cccDNA was evaluated by quantification of extracellular HBeAg with ELISA (Elisa Kit HBE.CE. Manufacturer: DIA.PRO). […]
For orientation: ELISA stands for enzyme-linked immunosorbent assay.

Data set [2] can be described thus: Mouse PK studies (plasma and liver exposure). It is filed as in vivo, C57BL/6 mice. More on the design: Liver [mM]: unit not given here. The settings on record: mice; for Kp: male, C57BL/6N, mouse, liver. The source says: C57BL/6 mice are used to evaluate plasma and liver exposure and pharmacokinetic parameters after intravenous and oral administration (from 2 to 200 mpk according to the compound tested and the administration route). 12 (+3 spare) healthy C57BL/6N male mice are obtained from Charles River S.p.A. Calco (Como), Italy. Animals are ordered weighing 21 to 27 grams and approximately 7 weeks old. Before and during testing, animals are housed in Individual Ventilated Cages (IVCs Tecniplast) with sawdust as bedding (three animals for cage). Cages are identified by a color code label recording the sample ID, animal number and details of treatment (route, dose and sex). Animals are identified by unique number on tail via permanent marker. Animal room controls are set to maintain temperature within the range from 20 to 24° C. and relative humidity within the range from 40 to 70% and an average daily airflow of at least 10 fresh air changes per hour. Actual conditions are recorded. The room is lit by fluorescent tubes controlled to give an artificial cycle of 12 hours light and 12 hours dark each day. All animals are weighed immediately before testing. Animals are dosed IV in a fed state and PO in a fasted state.
Compounds (from 0.4 to 20 mg/mL according to the compound tested and the administration route) are dissolved in DMSO/PEG400/H2O (20/60/20) for IV administration and 0.5% Methocel E50 or 20% Hydroxypropyl-β-cyclodextrin (HP-β-CD) in citrate buffer pH=5 for PO administration. The appropriate dose volume of the test item, calculated for each animal according to body weight (administration volume: 5 mL/kg for IV or 5 mL/kg or 10 mL/kg for PO), is administered by injection into lateral tail vein using 2.5 mL syringe (BD Plasipak) for IV administration and administered orally by gavage using 5 mL Syringe (BD Plastipak) for PO administration. Whole blood sample (about 0.200 mL) is collected via retro orbital sinus using Isoflurane as anesthetic. Blood is collected in Li-Heparin Sartsted® gel tubes appropriately labeled indicating animal number and time point. Tubes are put in wet ice and then centrifuged within 15 minutes from blood collection. Centrifugation is performed using a Heraeus Multifuge® 3S/3S-R set, at 2200×g for 10 minutes, internal temperature is kept at 4° C. After the centrifugation, about 100 μL of plasma samples are obtained and immediately transferred to 1.5 mL Eppendorf tubes and frozen at −20° C. (24/24 h alarmed). Whole blood samples are collected at different times point (0-0.25-0.5-1-2-4-6-8-24 hours) after dosing and kept frozen (−20° C.) until assayed by LC/MS/MS. Livers are explanted at different time point (0-8-24 hours), washed with saline solution, transferred to Eppendorf tubes and frozen at −80° C. until assayed by LC/MS/MS. Analytical procedures: Plasma samples are extracted using Liquid Handling Robot Hamilton StarPlus by protein precipitation with acetonitrile. Then the samples are centrifuged (3000 rpm×15 min at 4° C.) and the supernatant transferred and dried under nitrogen. The samples are reconstituted in water/acetonitrile 90/10 or 50/50 and then injected directly into an UPLC column. Sample analyses are performed using an API 4000 or/and API 5000 or/and API 4000QTrap Mass Spectrometer interfaced via the Turbo Ion Spray (ESI) to an LC system consisting of an Acquity UPLC Sample Manager autosampler and Acquity UPLC Binary Solvent Manager Pump. The results are calculated using Analyst Software linear regression with 1/x*x weighting. The Assay Precision is calculated for the Quality Controls by Watson Lims database.
Cmax is the maximum compound concentration from oral dosing; Tmax is the time at which Cmax is reached; AUC (0-24) is the area under the concentration vs time curve from 0 to 24 hours; AUC extrap is the area under the curve (AUC) extrapolated to infinity, from dosing time based on the last observed concentration. […]

In the case of `Cc1cc(N)c(S(N)(=O)=O)cc1C(=O)Nc1cc(F)c(F)c(F)c1` [Example E17, 4-amino-2-methyl-5-sulfamoyl-N-(3,4,5-trifluorophenyl)benzamide], in data set [1], the concentration giving a half-maximal response (EC50) (commonly the midpoint of the concentration-response curve) came out at 0.147 µM. In addition, the “Liver [mM]” value amounted to 317 in data set [2] (PO 25 mg/kg in 0.5% methocell), 747 in data set [2] (PO 75 mg/kg in 0.5% methocell) and 677 in data set [2] (PO 150 mg/kg in 0.5% methocell). Further, the Kp (as a rule, the ratio of the level in a tissue or fluid to that in plasma or blood) was determined as 15.9 in data set [2] (PO 25 mg/kg in 0.5% methocell), 14.4 in data set [2] (PO 75 mg/kg in 0.5% methocell) and 13.8 in data set [2] (PO 150 mg/kg in 0.5% methocell).
